pKi: −log10 of the molar value.

The subject of assay [1] is diastolic blood pressure. Description: Blood pressure in anaesthetized dogs after intravenous administration. Format: in vivo. Particulars: dog, i.v. As to the method: (§1) The experiments were performed according to the method of Imagawa et al. (J. Pharmacol. Methods, 22:103-111, 1989), with substantial modifications, as follows: adult male beagle dogs, weighing 8-10 kg, were anaesthetized with pentobarbital sodium (30 mg/kg i.v. and 2 mg/kg/h i.v.), intubated and spontaneously ventilated with room air. In order to monitor systemic blood pressure (BP), a polyethylene (PE) catheter was introduced into the aortic arch through the left femoral artery. A collateral of the left femoral vein was cannulated for infusion of anaesthetic, and the right femoral vein was cannulated for administration of compounds. For intraarterial (i.a.) injection of noradrenaline (NA), a PE catheter was introduced into the lower portion of the abdominal aorta via the right external iliac artery. Through such procedure, NA was selectively distributed to the lower urinary tract. A paramedian vertical suprapubic incision extending from the base of the pelvis to the mid-abdominal region was made and the bladder and the prostate were exposed. The bladder was manually emptied with a syringe. Prostatic urethral pressure was monitored with a Mikro-tip catheter (5F) introduced into the bladder via the external urethral meatus, and withdrawn until the pressure transducer was positioned in the prostatic region of the urethra. A ligature was secured between the neck of the bladder and urethra to isolate the response of the latter and to avoid any interaction with the bladder. Another ligature was put around the Mikro-tip catheter at the external meatus, to secure the catheter itself.
(§2) After a stabilizing period following the surgical procedure (30 minutes), in which arterial and prostatic urethral pressures were continuously monitored as basal values, i.a. administration of NA was made at intervals of 20 minutes.
(§3) The NA doses were chosen to produce an increase of at least 100% in urethral pressure. The test compounds were administered intravenously in a cumulative manner with intervals of 15-20 minutes between administrations. […]

Assay [2] deals with T1, recombinant α1b-adrenoceptor (Homo sapiens, UniProt P35368).
T1 construct: expressed in transfected cells
T1 sequence (P35368 1-520): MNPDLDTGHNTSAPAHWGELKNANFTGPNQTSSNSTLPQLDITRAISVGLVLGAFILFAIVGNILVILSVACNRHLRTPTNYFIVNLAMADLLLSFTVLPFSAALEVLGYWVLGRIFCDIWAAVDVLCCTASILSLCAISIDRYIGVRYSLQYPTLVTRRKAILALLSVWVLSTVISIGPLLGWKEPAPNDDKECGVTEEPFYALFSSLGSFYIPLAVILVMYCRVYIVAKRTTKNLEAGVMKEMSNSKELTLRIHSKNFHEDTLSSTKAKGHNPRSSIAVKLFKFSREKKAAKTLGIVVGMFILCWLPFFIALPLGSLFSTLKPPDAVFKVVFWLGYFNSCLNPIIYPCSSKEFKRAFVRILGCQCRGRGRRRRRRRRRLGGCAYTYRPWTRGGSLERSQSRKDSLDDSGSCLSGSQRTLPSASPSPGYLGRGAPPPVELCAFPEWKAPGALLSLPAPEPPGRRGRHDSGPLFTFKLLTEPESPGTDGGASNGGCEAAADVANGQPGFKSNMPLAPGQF
Description: Radioligand binding ([3H]prazosin) to cloned α1b adrenoceptor. Particulars: read-out: Affinity (Ki) α1b. As to the method: (§4) Determination of affinity for cloned subtypes of the α1-adrenoceptor was performed in membranes from cells transfected by electroporation with DNA expressing the genes encoding each α1-adrenoceptor subtype.
(§5) Non-specific binding was determined in the presence of 10 μM phentolamine. Incubation was stopped by addition of ice-cold Tris buffer and rapid filtration through Schleicher & Schuell GF52 filters that had been pretreated with 0.2%-polyethyleneimine.
(§6) Data were expressed as mean of Ki.

Assay [3] concerns the target T2, recombinant α1d-adrenoceptor (Homo sapiens, UniProt P25100).
T2 construct: expressed in transfected cells
T2 sequence (P25100 1-572): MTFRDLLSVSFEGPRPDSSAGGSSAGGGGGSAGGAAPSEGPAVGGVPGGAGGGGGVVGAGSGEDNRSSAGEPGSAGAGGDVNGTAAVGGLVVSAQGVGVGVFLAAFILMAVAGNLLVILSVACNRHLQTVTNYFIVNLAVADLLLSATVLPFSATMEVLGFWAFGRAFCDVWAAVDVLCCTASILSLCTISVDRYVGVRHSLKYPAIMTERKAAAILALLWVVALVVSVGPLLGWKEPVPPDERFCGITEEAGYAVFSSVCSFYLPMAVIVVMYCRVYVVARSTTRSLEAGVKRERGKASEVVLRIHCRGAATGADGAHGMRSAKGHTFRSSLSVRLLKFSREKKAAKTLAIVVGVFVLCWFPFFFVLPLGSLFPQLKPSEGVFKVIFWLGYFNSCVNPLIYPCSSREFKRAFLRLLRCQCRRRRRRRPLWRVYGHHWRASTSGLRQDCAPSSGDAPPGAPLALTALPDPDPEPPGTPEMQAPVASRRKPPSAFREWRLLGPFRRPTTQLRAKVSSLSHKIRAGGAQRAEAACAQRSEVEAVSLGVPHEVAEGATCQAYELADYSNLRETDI
Description: Radioligand binding ([3H]prazosin) to cloned α1d adrenoceptor. Particulars: read-out: Affinity (Ki) α1d. As to the method: as §4, §5, §6

In assay [4] the test system is prostatic urethral contractions induced by noradrenaline. Description: Urethral contractions induced by noradrenaline injection in anaesthetized dogs after intravenous administration. Format: in vivo. The conditions noted are these: dog, i.v. The protocol:
as §1, §2, §3

As a reminder, the pKi is the negative decadic logarithm of the Ki, by convention in mol/L. With `O=C(NCCCN1CCN(c2ccccc2OCC(F)(F)F)CC1)c1csc2c(=O)cc(-c3ccccc3)oc12` [Example 5, 7-Oxo-5-phenyl-N-{3-[4-[2-(2,2,2-trifluoroethoxy)phenyl]-1-piperazinyl]propyl}-7H-thieno[3,2-b]pyran-3-carboxamide], in assay [1], the “DBP ED25 (dose inducing a 25% decrease in diastolic blood pressure)” value is above 1 mg/kg. The pKi was 8.36 in assay [2] and 9.00 in assay [3]. For the same compound, the “UC ID50 NA (dose inhibiting by 50% the urethral contractions induced by noradrenaline)” value in assay [4] came out at 0.0027 mg/kg.

Take `COc1ccccc1N1CCN(CCCNC(=O)c2csc3c(=O)cc(-c4ccccc4)oc23)CC1` [Example 2, N-{3-[4-(2-Methoxyphenyl)-1-piperazinyl]propyl}-7-oxo-5-phenyl-7H-thieno[3,2-b]pyran-3-carboxamide]: in assay [1], the “DBP ED25 (dose inducing a 25% decrease in diastolic blood pressure)” value was found to be 0.0355 mg/kg. For the same compound, the results for the pKi in assay [2] and in assay [3] were 8.12 and 8.61, respectively. In addition, the “UC ID50 NA (dose inhibiting by 50% the urethral contractions induced by noradrenaline)” value in assay [4] is 0.0018 mg/kg.

For the origin of these results see patent US6387909B1, “Thienopyranecarboxamide derivatives” (Recordati S.A. Chemical and Pharmaceutical Company, priority 1999, dated 2002).
